Test results published in article PMC3481155, “AhR activation underlies the CYP1A autoinduction by A-998679 in rats” (Frontiers in Genetics, 2012).

Key:
rat Cyp 2D1 = target: T1, rat Cyp 2D1 (Rattus norvegicus, UniProt P10633); test: Recombinant rat Cyp phenotype profiling, 2D1; assay type: in vitro ADME; settings: 60 min
T1 construct: purchased BD Gentest; host or cells: baculovirus infected insect cells
Procedure: Identification of the drug metabolizing enzymes (DMEs) of A-998679 was studied in cDNA expressed recombinant enzymes prepared from baculovirus infected insect cells over-expressing rat Cyp isoforms (BD Gentest, Woburn, MA) as listed in Table 2. Incubations were conducted in duplicate using Supersomes. The incubation mixture contained 100 pmol/ml of enzymes, except for Cyp1a1 (200 pmol/ml), 0.1 or 0.21 μM of [^3H]A-998679 in 100 mM phosphate buffer (pH 7.4). Reactions were initiated with the addition of NADPH at a final concentration of 1 mM and incubated at 37°C for 60 min. At the end of the incubation period, the incubations were terminated by the addition of acetonitrile/ethanol (50/50, v/v) solution. Insect control samples lacking expressed enzyme were used as negative control. The degree of metabolism of A-998679 was assessed by percent of parent remaining using the radio-HPLC method described below.
Radiolabeled components from the above assays were profiled following separation by HPLC with on line radioflow detector. The system consisted of an Agilent 1100 Series quaternary pump and autosampler connected to a Packard 500TR flow scintillation detector. The data were processed using the Radiomatic™ Flo-one® software v3.65. The scintillant (Perkin Elmer FLO-SCINT™ III) flow was maintained at 3 ml/min. […]

[1] = target: T2, aryl hydrocarbon receptor (AhR) (Homo sapiens, UniProt P35869); test: AhR luciferase reporter assay in HepG2 cells; assay type: cell-based
T2 construct: endogenous in cells; host or cells: HepG2
T2 sequence (P35869 11-848): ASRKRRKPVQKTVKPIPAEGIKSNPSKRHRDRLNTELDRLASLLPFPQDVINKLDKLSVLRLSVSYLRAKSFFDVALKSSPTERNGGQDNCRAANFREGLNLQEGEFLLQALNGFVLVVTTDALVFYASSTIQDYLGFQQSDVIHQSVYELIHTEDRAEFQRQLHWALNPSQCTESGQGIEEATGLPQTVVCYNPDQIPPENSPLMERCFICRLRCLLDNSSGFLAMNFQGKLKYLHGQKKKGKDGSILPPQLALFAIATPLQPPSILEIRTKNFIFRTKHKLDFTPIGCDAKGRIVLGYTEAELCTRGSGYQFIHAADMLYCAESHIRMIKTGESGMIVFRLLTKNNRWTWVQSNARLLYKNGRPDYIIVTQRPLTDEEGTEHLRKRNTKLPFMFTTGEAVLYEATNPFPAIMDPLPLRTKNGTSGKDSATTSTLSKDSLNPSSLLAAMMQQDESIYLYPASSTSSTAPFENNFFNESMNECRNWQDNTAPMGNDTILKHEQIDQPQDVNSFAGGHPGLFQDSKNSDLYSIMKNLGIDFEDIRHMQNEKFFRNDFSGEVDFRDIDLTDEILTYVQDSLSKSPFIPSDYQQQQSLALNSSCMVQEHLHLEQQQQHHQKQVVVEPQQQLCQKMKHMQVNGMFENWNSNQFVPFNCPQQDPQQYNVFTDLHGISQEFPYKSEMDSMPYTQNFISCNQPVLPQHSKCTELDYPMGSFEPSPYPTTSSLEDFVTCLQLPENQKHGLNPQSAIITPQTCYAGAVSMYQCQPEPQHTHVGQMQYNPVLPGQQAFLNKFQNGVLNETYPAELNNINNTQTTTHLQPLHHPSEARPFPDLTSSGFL
Procedure: HepG2 cells were transiently transfected overnight with the construct (1200 bp portion of the human CYP1A1 promoter region containing 2 copies of the functional consensus sequence for the DRE in luc2P luciferase vector (SwitchGear Genomics cat# 114555, Menlo Park, CA) using lipofectin (Invitrogen Life Technologies) at 500 ng construct per million cells. Following transfection, the cells were replated in a 96-well format and dosed for 24 h with 0.1% (v/v) DMSO vehicle, 3-MC at 0.05, 0.1, 0.5, 1, 5, 10 μM, and A-998679 at 1.5625, 3.125, 6.25, 12.5, 25, and 50 μM. Luminescence signal was generated using the Dual-Luciferase Reporter Assay System (Promega, Madison, WI) and detected with a Tecan Genios Pro reader (Männedorf, Switzerland).

T1 sequence (P10633 whole entry): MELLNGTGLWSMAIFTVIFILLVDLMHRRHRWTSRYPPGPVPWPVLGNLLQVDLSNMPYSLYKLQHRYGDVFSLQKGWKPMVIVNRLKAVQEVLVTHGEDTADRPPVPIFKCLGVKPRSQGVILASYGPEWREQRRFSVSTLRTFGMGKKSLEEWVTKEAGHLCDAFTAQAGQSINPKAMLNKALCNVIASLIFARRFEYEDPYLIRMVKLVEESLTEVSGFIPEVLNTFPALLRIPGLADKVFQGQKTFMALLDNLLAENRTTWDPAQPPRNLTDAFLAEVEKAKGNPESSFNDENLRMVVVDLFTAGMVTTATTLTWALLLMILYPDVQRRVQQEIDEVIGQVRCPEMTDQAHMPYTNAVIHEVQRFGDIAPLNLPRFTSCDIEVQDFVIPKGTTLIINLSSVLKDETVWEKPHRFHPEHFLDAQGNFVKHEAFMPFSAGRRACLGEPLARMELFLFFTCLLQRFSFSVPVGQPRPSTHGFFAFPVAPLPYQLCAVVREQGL

% parent remaining (rat Cyp 2D1; recombinant rat Cyp 2D1, 0.10 μM): 91.9% | % parent remaining (rat Cyp 2D1; recombinant rat Cyp 2D1, 0.21 μM): 91.1% | lowest level activating the DRE ([1]; gene reporter assay): ~ 6 μM | EC50 ([1]; luciferase reporter with human DRE construct, 24 h, read-out: EC50, activation of AhR signaling): 16.2 µM | maximal increase over vehicle ([1]; luciferase reporter, 24 h): 56 fold
Compound: N#Cc1cccc(-c2noc(-c3cccnc3)n2)c1 [A-998679, 3-(5-pyridin-3-yl-1,2,4-oxadiazol-3-yl) benzonitrile]
